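Dose response: 5 concentrations. Exposure: 48 h. Format: 96-well plates. Endpoint: linear interpolation; highest concentration if not reached. GI50: concentration for 50% inhibition of growth.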 Active and inactive are the calls of the source. No stated cut-off is given here; in the data, active = GI50 up to about 1.1 µM and inactive = higher.
Assays:
Assay in all cases: DTP human tumour cell line panel, 48 h
SW-620 = system: SW-620
Malme-3M = system: Malme-3M
OVCAR-3 = system: OVCAR-3
NCI-H460 = system: NCI-H460
SF-295 = system: SF-295
TK-10 = system: TK-10
IGROV-1 = system: IGROV-1
LOX IMVI = system: LOX IMVI
SR = system: SR
M14 = system: M14
SK-MEL-5 = system: SK-MEL-5
OVCAR-4 = system: OVCAR-4
HCT-116 = system: HCT-116
NCI-H522 = system: NCI-H522
HL-60 = system: HL-60

Structure (SMILES)	GI50 (SW-620)	GI50 (Malme-3M)	GI50 (OVCAR-3)	GI50 (NCI-H460)	GI50 (SF-295)	GI50 (TK-10)	GI50 (IGROV-1)	GI50 (LOX IMVI)	GI50 (SR)	GI50 (M14)	GI50 (SK-MEL-5)	GI50 (OVCAR-4)	GI50 (HCT-116)	GI50 (NCI-H522)	GI50 (HL-60)
COC1OC2COC(c3ccccc3)OC2C(O)C1OC(=S)c1ccccc1 (stereo not given)	45.3 µM (inactive)	21.2 µM (inactive)	34.8 µM (inactive)	28.6 µM (inactive)	39.3 µM (inactive)	62.5 µM (inactive)	32.4 µM (inactive)	0.244 µM (active)	42.9 µM (inactive)	46.2 µM (inactive)	23 µM (inactive)	73.6 µM (inactive)	–	–	–
CCOC(=O)COc1cc(-c2ccccc2F)nc2cc3c(cc12)OCO3	> 100 µM (inactive)	> 100 µM (inactive)	> 10 µM (inactive)	–	> 100 µM (inactive)	> 100 µM (inactive)	90.8 µM (inactive)	53.7 µM (inactive)	> 10 µM (inactive)	> 100 µM (inactive)	71.9 µM (inactive)	–	72.3 µM (inactive)	–	–
O=C(CNc1cccc(Cl)c1)Nn1c(-c2ccccc2)nc2ccccc2c1=O	2.47 µM (inactive)	–	7.1 µM (inactive)	10.5 µM (inactive)	14.1 µM (inactive)	> 10 µM (inactive)	4.35 µM (inactive)	1.21 µM (inactive)	4.6 µM (inactive)	2.09 µM (inactive)	1.53 µM (inactive)	3.58 µM (inactive)	1.77 µM (inactive)	1.42 µM (inactive)	2.95 µM (inactive)
NCCCN(CCCCN(CCCN)C(=O)OCc1ccccc1)C(=O)OCc1ccccc1	> 100 µM (inactive)	–	43.2 µM (inactive)	88.9 µM (inactive)	> 100 µM (inactive)	> 100 µM (inactive)	24.2 µM (inactive)	39.8 µM (inactive)	–	> 100 µM (inactive)	> 100 µM (inactive)	> 100 µM (inactive)	> 100 µM (inactive)	28.5 µM (inactive)	29.8 µM (inactive)
CC(=O)Nc1ccccc1S(=O)(=O)c1c(-c2c(C)c(Cl)c(C)c(Cl)c2C)noc1C	> 100 µM (inactive)	> 100 µM (inactive)	57.8 µM (inactive)	26.5 µM (inactive)	32.8 µM (inactive)	23.3 µM (inactive)	56.6 µM (inactive)	–	16.1 µM (inactive)	74.3 µM (inactive)	> 100 µM (inactive)	14.7 µM (inactive)	51.5 µM (inactive)	49.5 µM (inactive)	–
CC1SC(=O)SC1C (stereo not given)	> 100 µM (inactive)	–	–	> 100 µM (inactive)	> 100 µM (inactive)	> 100 µM (inactive)	> 100 µM (inactive)	–	> 100 µM (inactive)	> 100 µM (inactive)	> 100 µM (inactive)	> 100 µM (inactive)	> 100 µM (inactive)	> 100 µM (inactive)	> 100 µM (inactive)
